{"source": "paper PMC8373196", "about": "“In silico, in vitro, and ex vivo studies of the toxicological and pharmacological properties of the flavonoid 5,7-dihydroxy-3,8,4'-trimethoxy” (Brazilian Journal of Medical and Biological Research, 2021)", "key": {"oral mucosa cells": {"tested_on": "oral mucosa cells", "assay": "Genotoxic effect on oral mucosa cells (ex vivo)", "assay_type": "cell-based, human", "description": "(§1) The in vitro and ex vivo assays followed the guidelines provided in the Ethics Code of the World Medical Association and were approved by the Ethics Committee of the Patos University Center (protocol number: 3.621.284). For cell pellet preparation, blood samples (A, B, and O), and buccal mucosa were used from healthy young adults of both sexes between 18 and 40 years of age.\nFor evaluation of the genotoxic effect on oral mucosa cells, cell collection from the oral mucosa of the donors was performed with a cytobrush (smear brush collector) in the cheek area, and the material obtained was placed in 5 mL of 0.9% NaCl ([7]). Control samples were divided into two groups: cells treated with 0.0005% hydrogen peroxide (positive control) and cells not exposed to treatments (negative control). The cells were washed twice in saline solution and centrifuged for 10 min (900 g, 28°C). The cell pellets were re-suspended and kept in 5 mL of saline solution. After the third wash, they were exposed (ex vivo) to Pg-1 (50, 100, 500, and 1000 µg/mL) for 30 min; each test was performed in triplicate. The material was centrifuged for 5 min (900 g, 28°C) and the supernatant was removed before smear preparation. The cells were homogenized in a vortex and dried on the slides at room temperature for 15 min. Finally, they were fixed with a methanol:acetic acid mixture (3:1) for 15 min ([8]), and stained with 2% Giemsa. The cells were observed under an optical microscope and about 1000 cells were analyzed per slide. The data are reported as percentages representing the arithmetic average of three measurements ([9]). The cell toxicity was assessed by the presence of cellular indicators such as micronucleus, bi-nucleation, karyolysis, karyorrhexis, and macronucleus ([10])."}, "[1]": {"assay": "Hemolytic activity on human erythrocytes (in vitro)", "assay_type": "cell-based", "settings": "both sexes; for hemolysis at 1 h, 1000 µg/mL: 0.5% red blood cell suspension, read-out: hemolysis rate", "description": "as §1\nFor hemolytic activity, red blood cell (RBC) samples were mixed with 0.9% NaCl in a proportion of 1:30 and centrifuged for 5 min (1400 g, 28°C) to obtain a white blood cell and platelet-free 0.5% suspension. The tested substance (Pg-1) was added to 2 mL RBC suspensions at the concentrations of 50, 100, 500, and 1000 µg/mL. The control samples were divided into two groups: negative control - RBC suspension (0% hemolysis) and a positive control - RBC suspension with 1% Triton X-100 (100% hemolysis). The material was incubated for 1 h at 22±2°C. Afterwards, the samples were centrifuged for 5 min (1400 g, 28°C) and hemolysis was quantified by spectrophotometry at 540 nm wavelength ([6])."}}, "note": "Where two headings read alike, the source gives them in different places.", "data": [{"smiles": "OO", "note": "[Positive control, hydrogen peroxide, reference compound]", "values": [{"measurement": "Binucleation (%)", "setting": "oral mucosa cells; 0.0005% hydrogen peroxide", "result": "4.33±0.38", "unit": "%"}, {"measurement": "Karyolysis (%)", "setting": "oral mucosa cells; 0.0005% hydrogen peroxide", "result": "5.44±0.72", "unit": "%"}, {"measurement": "Karyorrhexis (%)", "setting": "oral mucosa cells; 0.0005% hydrogen peroxide", "result": "5.11±0.67", "unit": "%"}, {"measurement": "Macronucleus (%)", "setting": "oral mucosa cells; 0.0005% hydrogen peroxide", "result": "4.55±0.80", "unit": "%"}, {"measurement": "Micronucleus (%)", "setting": "oral mucosa cells; 0.0005% hydrogen peroxide", "result": "4.00±0.88", "unit": "%"}, {"measurement": "Normal (%)", "setting": "oral mucosa cells; 0.0005% hydrogen peroxide", "result": "76.56±3.08", "unit": "%"}, {"measurement": "Normal (%)", "setting": "oral mucosa cells; 0.0005% hydrogen peroxide, listed as positive control", "result": "< 80", "unit": "%"}]}, {"smiles": "COc1ccc(-c2oc3c(OC)c(O)cc(O)c3c(=O)c2OC)cc1", "note": "[Pg-1, 5,7-dihydroxy-3,8,4'-trimethoxy]", "values": [{"measurement": "Binucleation (%)", "setting": "oral mucosa cells; 50 µg/mL, 30 min", "result": "3.00±0.33", "unit": "%"}, {"measurement": "Karyolysis (%)", "setting": "oral mucosa cells; 50 µg/mL, 30 min", "result": "2.88±0.11", "unit": "%"}, {"measurement": "Karyorrhexis (%)", "setting": "oral mucosa cells; 50 µg/mL, 30 min", "result": "1.77±0.58", "unit": "%"}, {"measurement": "Macronucleus (%)", "setting": "oral mucosa cells; 50 µg/mL, 30 min", "result": "6.55±0.58", "unit": "%"}, {"measurement": "Micronucleus (%)", "setting": "oral mucosa cells; 50 µg/mL, 30 min", "result": "0.55±0.11", "unit": "%"}, {"measurement": "Normal (%)", "setting": "oral mucosa cells; 50 µg/mL, 30 min", "result": "85.22±0.72", "unit": "%"}, {"measurement": "Binucleation (%)", "setting": "oral mucosa cells; 100 µg/mL, 30 min", "result": "1.77±0.58", "unit": "%"}, {"measurement": "Karyolysis (%)", "setting": "oral mucosa cells; 100 µg/mL, 30 min", "result": "2.44±0.44", "unit": "%"}, {"measurement": "Karyorrhexis (%)", "setting": "oral mucosa cells; 100 µg/mL, 30 min", "result": "7.33±0.19", "unit": "%"}, {"measurement": "Macronucleus (%)", "setting": "oral mucosa cells; 100 µg/mL, 30 min", "result": "3.55±0.94", "unit": "%"}, {"measurement": "Micronucleus (%)", "setting": "oral mucosa cells; 100 µg/mL, 30 min", "result": "0.22±0.11", "unit": "%"}, {"measurement": "Normal (%)", "setting": "oral mucosa cells; 100 µg/mL, 30 min", "result": "84.67±1.07", "unit": "%"}, {"measurement": "Binucleation (%)", "setting": "oral mucosa cells; 500 µg/mL, 30 min", "result": "2.33±0.50", "unit": "%"}, {"measurement": "Karyolysis (%)", "setting": "oral mucosa cells; 500 µg/mL, 30 min", "result": "2.55±0.80", "unit": "%"}, {"measurement": "Karyorrhexis (%)", "setting": "oral mucosa cells; 500 µg/mL, 30 min", "result": "3.66±1.01", "unit": "%"}, {"measurement": "Macronucleus (%)", "setting": "oral mucosa cells; 500 µg/mL, 30 min", "result": "5.33±0.33", "unit": "%"}, {"measurement": "Micronucleus (%)", "setting": "oral mucosa cells; 500 µg/mL, 30 min", "result": "0.22±0.11", "unit": "%"}, {"measurement": "Normal (%)", "setting": "oral mucosa cells; 500 µg/mL, 30 min", "result": "85.89±1.78", "unit": "%"}, {"measurement": "Binucleation (%)", "setting": "oral mucosa cells; 1000 µg/mL, 30 min", "result": "1.55±0.58", "unit": "%"}, {"measurement": "Karyolysis (%)", "setting": "oral mucosa cells; 1000 µg/mL, 30 min", "result": "1.44±0.22", "unit": "%"}, {"measurement": "Karyorrhexis (%)", "setting": "oral mucosa cells; 1000 µg/mL, 30 min", "result": "1.44±0.11", "unit": "%"}, {"measurement": "Macronucleus (%)", "setting": "oral mucosa cells; 1000 µg/mL, 30 min", "result": "3.66±0.19", "unit": "%"}, {"measurement": "Micronucleus (%)", "setting": "oral mucosa cells; 1000 µg/mL, 30 min", "result": "0.33±0.01", "unit": "%"}, {"measurement": "Normal (%)", "setting": "oral mucosa cells; 1000 µg/mL, 30 min", "result": "91.56±0.44", "unit": "%"}, {"measurement": "toxicity in genotoxicity testing", "setting": "oral mucosa cells; all concentrations (50-1000 µg/mL)", "result": "low toxicity"}, {"measurement": "hemolysis at 1 h", "setting": "[1]; 0.5% red blood cell suspension (blood types A, B and O), all concentrations tested (50-1000 µg/mL), read-out: rate of hemolysis (class)", "result": "0 to 40", "unit": "%"}, {"measurement": "hemolysis at 1 h, 1000 µg/mL", "setting": "[1]; type A blood", "result": "< 5", "unit": "%"}, {"measurement": "hemolysis at 1 h, 1000 µg/mL", "setting": "[1]; type B blood", "result": "< 17", "unit": "%"}, {"measurement": "hemolysis at 1 h, 1000 µg/mL", "setting": "[1]; type O blood", "result": "< 9", "unit": "%"}]}]}
